Earlier results as cited in US20210095288A1, “METHODS OF MODULATING NKX6.3” (SOCIETE DES PRODUITS NESTLE S.A., priority 2018, published 2021).

System: NKX6.3
Conditions: effect on NKX6.3 expression; from Davis A P, et al., Comparative Toxicogenomics Database: update 2017

Structure (SMILES)	Interaction Actions
CC(C)(c1ccc(O)cc1)c1ccc(O)cc1 [bisphenol A]	Decreases
CCCc1cc(=O)[nH]c(=S)[nH]1 [Propylthiouracil]	Decreases
CCC[CH2][Sn]([CH2]CCC)([CH2]CCC)[O][Sn]([CH2]CCC)([CH2]CCC)[CH2]CCC [bis(tri-n-butyltin)oxide]	Decreases
COC[C@@H]([C@H](O)[C@H](O)C(=O)NCC[C@H](C)c1nc(/C=C/C[C@@H]2O[C@]3(C[C@@H](O)[C@@H]2C)O[C@H]([C@H](C[C@H](O)[C@H](C)[C@H](O)[C@H](C)/C=C(C)/C(C)=C/C=C/C(C)=C\C#N)OC)[C@H](OP(=O)(O)O)C3(C)C)co1)N(C)C [calyculin A]	Decreases
CC(=O)Nc1ccc(O)cc1 [Acetaminophen]	Decreases
